Source: patent US10316017B2, “COT modulators and methods of use thereof” (Gilead Sciences, Inc., priority 2015, dated 2019)
Read-outs that look alike come from different tables or passages of the source.

Columns and labels:
[1] = target: T1, human Cot catalytic domain (30-397 amino acids) (Homo sapiens, UniProt P41279); assay: High Throughput Cot Biochemical Assay (KinEASE TR-FRET); conditions: read-out: IC50 HTRF
T1 construct: Purified recombinant human Cot catalytic domain (30-397 amino acids) was purchased from Cama Biosciences; purchased Cama Biosciences (so in the source)
Procedure, shortened: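 Phosphorylation of 1 μM XL665-STK3 peptide by 5 nM Cot catalytic domain was measured by time-resolved FRET using a europium […] antibody. ATP was 400 μM; buffer was 10 mM MOPS pH 7.0 with Mg2+ and DTT.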

[2] = tested on: TNFα production in LPS-stimulated human monocytes; assay: Cot Monocyte TNFα Cell Based Assay; conditions: Homo sapiens, Monocyte, read-out: EC50 TNF
Procedure, shortened: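 Percent-of-control values derive from TR-FRET ratios of TNFα in spun-down media, referenced to unstimulated and LPS-stimulated wells. Exposure: 1 h compound preincubation, then 50 pg/ml LPS for 4 h, both at 37 °C, with 0.5% final DMSO.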

[3] = Cot biochemical HTRF (KinEASE TR-FRET) assay
[4] = TNFα in LPS-stimulated human monocytes
[5] = Cot KinEASE TR-FRET (HTRF) biochemical assay, 400 μM ATP
[6] = Cot KinEASE TR-FRET, 400 μM ATP
[7] = LPS-stimulated human monocytes, TNFα TR-FRET

T1 sequence (P41279 30-397): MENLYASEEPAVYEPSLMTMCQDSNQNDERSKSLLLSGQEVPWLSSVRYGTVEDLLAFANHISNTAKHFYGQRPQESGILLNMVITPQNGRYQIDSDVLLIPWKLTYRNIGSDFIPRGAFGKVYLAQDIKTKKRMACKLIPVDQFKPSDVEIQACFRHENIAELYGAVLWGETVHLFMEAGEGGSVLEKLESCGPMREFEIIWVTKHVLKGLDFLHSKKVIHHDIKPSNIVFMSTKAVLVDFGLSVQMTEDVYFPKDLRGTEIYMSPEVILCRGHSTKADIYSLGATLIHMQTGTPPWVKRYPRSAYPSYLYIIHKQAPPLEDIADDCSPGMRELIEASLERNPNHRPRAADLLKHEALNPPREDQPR

IC50 [1, 3] [nM]	EC50 [2, 4] [nM]	IC50 [1, 5] [nM]	IC50 [1, 6] [nM]	EC50 [2, 7] [nM]	Compound
8	241	–	–	–	CC(C)(C)N1CCC(n2cc([C@@H](Nc3cc(Cl)c4ncc(C#N)c(Nc5ccc(F)c(Cl)c5)c4c3)c3ccc(F)cc3)nn2)CC1 [Example 836, (S)-6-(((1-(1-(tert-butyl)piperidin-4-yl)-1H-1,2,3-triazol-4-yl)(4-fluorophenyl)methyl)amino)-8-chloro-4-((3-chloro-4-fluorophenyl)amino)quinoline-3-carbonitrile]
32	641	–	–	–	N#Cc1cnc2c(Cl)cc(N[C@@H](c3ccc(Cl)cc3)c3c[nH]nn3)cc2c1Nc1cnc(F)c(F)c1 [Example 495, (S)-8-chloro-6-(((4-chlorophenyl)(1H-1,2,3-triazol-4-yl)methyl)amino)-4-((5,6-difluoropyridin-3-yl)amino) quinoline-3-carbonitrile]
–	1190	160	–	–	[2H][C@](Nc1cc(C(F)(F)F)c2ncc(C#N)c(N[C@H](CC)c3ccccc3)c2c1)(c1ccc(F)cc1)c1cn(C2CC2)nn1 [Example 195, 6-(((S)-(1-cyclopropyl-1H-1,2,3-triazol-4-yl)(4-fluorophenyl)methyl-d)amino)-4-(((R)-1-phenylpropyl)amino)-8-(trifluoromethyl) quinoline-3-carbonitrile]
–	2540	251	–	–	[2H][C@](Nc1cc(Cl)c2ncc(C#N)c(NC3COC3)c2c1)(c1ccc(F)cc1)c1cn(C2CC2)nn1 [Example 201, (S)-8-chloro-6-(((1-cyclopropyl-1H-1,2,3-triazol-4-yl)(4-fluorophenyl)methyl-d)amino)-4-(oxetan-3-ylamino) quinoline-3-carbonitrile]
144	1410	–	–	–	[2H][C@](Nc1cc(Cl)c2ncc(C#N)c(Nc3ccc(Cl)c(Cl)c3F)c2c1)(c1ccccc1)c1c[nH]nn1 [Example 463, (S)-8-chloro-4-((3,4-dichloro-2-fluorophenyl)amino)-6-((phenyl(1H-1,2,3-triazol-4-yl)methyl-d)amino)quinoline-3-carbonitrile]
43	12300	–	–	–	CC(C)(C)N1CCC(n2cc([C@@H](Nc3cc(Cl)c4ncc(C#N)c(NCc5cccc(F)c5F)c4c3)c3ccccc3)nn2)CC1 [Example 617, (S)-6-(((1-(1-(tert-butyl)piperidin-4-yl)-1H-1,2,3-triazol-4-yl)(phenyl)methyl)amino)-8-chloro-4-((2,3-difluorobenzyl)amino)quinoline-3-carbonitrile]
–	–	–	4	61	Cc1c(-c2cnn(C)c2)cccc1[C@H](Nc1cc(C#N)c2ncc(C#N)c(NCC(C)(C)C)c2c1)c1cn(C2(C(F)(F)F)CC2)nn1 [Example 1138, (S)-6-(((2-methyl-3-(1-methyl-1H-pyrazol-4-yl)phenyl)(1-(1-(trifluoromethyl)cyclopropyl)-1H-1,2,3-triazol-4-yl)methyl)amino)-4-(neopentylamino)quinoline-3,8-dicarbonitrile]
–	–	–	3	35	[2H][C@](Nc1cc(Br)c2ncc(C#N)c(N[C@H](CCC#N)c3ccccc3)c2c1)(c1ccc(F)cc1)c1cn(C2CC2)nn1 [Example 937, 8-bromo-4-(((R)-3-cyano-1-phenylpropyl)amino)-6-(((S)-(1-cyclopropyl-1H-1,2,3-triazol-4-yl)(4-fluorophenyl)methyl-d)amino)quinoline-3-carbonitrile]
–	–	–	1	78	CC[C@@H](Nc1c(C#N)cnc2c(C#N)cc(N[C@@H](c3cccc(C(=O)NC)c3)c3cn(C4CC4)nn3)cc12)c1ccccc1 [Example 948, 3-((S)-(1-cyclopropyl-1H-1,2,3-triazol-4-yl) ((3,8-dicyano-4-(((R)-1-phenylpropyl)amino)quinolin-6-yl)amino)methyl)-N-methylbenzamide]
4	305	–	–	–	CC1(C)CC(n2cc([C@@H](Nc3cc(Cl)c4ncc(C#N)c(Nc5ccc(F)c(Cl)c5)c4c3)c3ccccc3)nn2)CCN1 (stereo partly drawn) [Example 790, 8-chloro-4-((3-chloro-4-fluorophenyl)amino)-6-(((1S)-(1-(2,2-dimethylpiperidin-4-yl)-1H-1,2,3-triazo1-4-yl)(phenyl)methyl)amino) quinoline-3-carbonitrile]
17	383	–	–	–	N#Cc1cnc2c(Cl)cc(NC(c3ccccc3)c3cn(C4CCNCC4)cn3)cc2c1Nc1ccc(F)c(Cl)c1 (stereo not drawn) [Example 642, 8-chloro-4-((3-chloro-4-fluorophenyl)amino)-6-((phenyl (1-(piperidin-4-yl)-1H-imidazo-4-yl)methyl)amino)quinoline-3-carbonitrile]
38	3270	–	–	–	CC(C)(C)N1CCC(n2cc([C@@H](Nc3cc(Cl)c4ncc(C#N)c(Nc5cc(F)cc(F)c5)c4c3)c3ccc(Cl)cc3)nn2)CC1 [Example 764, (S)-6-(((1-(1-(tert-butyl)piperidin-4-yl)-1H-1,2,3-triazol-4-yl)(4-chlorophenyl)methyl)amino)-8-chloro-4-((3,5-difluorophenyl)amino)quinoline-3-carbonitrile]
111	3410	–	–	–	CC(C)(C)Cn1cc([C@@H](Nc2cc(Cl)c3ncc(C#N)c(Nc4cnc(F)c(F)c4)c3c2)c2ccc(F)cc2)nn1 [Example 411, (S)-8-chloro-4-((5,6-difluoropyridin-3-yl)amino)-6-(((4-fluorophenyl)(1-neopentyl-1H-1,2,3-triazol-4-yl)methyl)amino)quinoline-3-carbonitrile]
–	191	30	–	–	CC[C@@H](Nc1c(C#N)cnc2c(Cl)cc(N[C@@H](c3ccc(F)cc3)c3cn(C4(C(F)(F)F)CC4)nn3)cc12)c1ccccc1 [Example 379, 8-chloro-6-(((S)-(4-fluorophenyl)(1-(1-(trifluoromethyl)cyclopropyl)-1H-1,2,3-triazo1-4-yl)methyl)amino)-4-(((R)-1-phenylpropyl)amino)quinoline-3-carbonitrile]
10	809	–	–	–	CC[C@@H](Nc1c(C#N)cnc2c(Cl)cc(N[C@@H](c3ccc(Cl)cc3)c3cn(C4CCN(C(C)(C)C)CC4)nn3)cc12)c1ccccc1 [Example 677, 6-(((S)-(1-(1-(tert-butyl)piperidin-4-yl)-1H-1,2,3-triazol-4-yl)(4-chlorophenyl)methyl)amino)-8-chloro-4-(((R)-1-phenylpropyl)amino)quinoline-3-carbonitrile]
4	140	–	–	–	N#Cc1cnc2c(Cl)cc(N[C@@H](c3ccc(F)cc3)c3cn(C4CC4)nn3)cc2c1Nc1cnc(F)c(Cl)c1 [Example 414, (S)-8-chloro-4-((5-chloro-6-fluoropyridin-3-yl)amino)-6-(((1-cyclopropyl-1H-1,2,3-triazol-4-yl)(4-fluorophenyl)methyl)amino) quinoline-3-carbonitrile]
7930	> 10000	–	–	–	COc1[nH]nnc1C(Nc1cc(Cl)c2ncc(C#N)c(Nc3cnc(F)c(F)c3)c2c1)c1ccc(F)cc1 (stereo not drawn) [Example 435, 8-chloro-4-((5,6-difluoropyridin-3-yl)amino)-6-(((4-fluorophenyl)(5-methoxy-1H-1,2,3-triazol-4-yl)methyl)amino)quinoline-3-carbonitrile]
2760	2380	–	–	–	CC[C@@H](Nc1c(C#N)cnc2c(Cl)cc(NC(c3ccc(F)cc3)c3nn[nH]c3OC)cc12)c1ccccc1 (stereo partly drawn) [Example 434, 8-chloro-6-(((4-fluorophenyl)(5-methoxy-1H-1,2,3-triazol-4-yl)methyl)amino)-4-(((R)-1-phenylpropyl)amino)quinoline-3-carbonitrile]
